Test results published in patent US20140162974A1, “METHODS FOR MODULATION OF PHOSPHORUS AND FGF23” (Luitpold Pharmaceuticals, Inc., priority 2012, published 2014).

How the values were obtained:
[1] = VIT-30 safety: composite cardiovascular endpoint and adverse events; type: in vivo
Protocol: (§1) Study visits were on Days 0, 3, 7, 10, 14, 28, 56, and 120. A phone assessment occurred on Day 90.
The Venofer Group received 5 doses of Venofer, 200 mg for a total dose of 1,000 mg.
For Venofer, subjects received, as an IV push injection over 2 to 5 minutes, 200 mg on Days 0, 7, and 14 with 2 additional doses given: 1 between Days 0 and 7 and the other between Days 7 and 14 (i.e., for a total of 5 doses [1,000 mg]).
For safety, the primary measure was the proportion of subjects experiencing treatment-emergent adverse event included in the primary composite safety endpoint. Treatment-emergent events included events that started on or after the first dose of randomized treatment. The composite safety endpoint included: deaths due to any cause; nonfatal myocardial infarction; nonfatal stroke; unstable angina requiring hospitalization; congestive heart failure requiring hospitalization or medical intervention; arrhythmias; protocol-defined hypertensive events; and protocol-defined hypotensive events. These events were adjudicated in a blinded fashion. Supportive safety measures included: proportion of subjects who died (all cause mortality); time to first event comprising the primary composite safety endpoint; proportion of subjects reporting treatment-emergent adverse events, overall and related; proportion of subjects reporting treatment-emergent serious adverse events, overall and related; incidence of treatment-emergent potentially clinically significant (PCS) clinical laboratory values; and incidence of treatment-emergent PCS vital sign values.
The Safety Population consisted of all subjects who received a dose of randomized treatment. All safety analyses were performed with the Safety Population.
Safety assessments were summarized for the Safety Population unless stated otherwise. Subjects were analyzed under the treatment actually received.
The precision of the estimated treatment group difference was measured by the width of the 95% CI.
The number and percent of subjects who reported treatment-emergent adverse events were summarized for each treatment group. A treatment-emergent adverse event was an event that began after receipt of randomized treatment.
The adverse event profile was characterized with severity (as graded by Version 3.0 of the NCI CTCAE) and relationship (unrelated and related) to study drug. Related adverse events were events that were possibly or probably related to treatment in the Investigator's judgment. Events with unknown severity or relationship were counted as unknown.
The number and percent of subjects who reported treatment-emergent serious adverse events were similarly summarized for each treatment group. The number and percent of subjects who reported treatment-emergent adverse events resulting in discontinuation of study drug were similarly summarized for each treatment group.
Time to the first adverse event comprising the primary composite safety endpoint was summarized with the Kaplan-Meier approach. […] The log-rank statistic were used to compare time-to-event curves between treatment groups and a 95% CI of the hazard ratio was calculated with a Cox proportional hazards model.

[2] = In vitro and in vivo mutagenicity tests
[3] = Example 3 trial: adverse events; type: in vivo, human
Protocol: Study visits were on Days 0 (when iron was infused), 1 (24 hours after iron infusion), 7, 14, and 35. The primary objectives were to determine the effect of iron deficiency on cFGF23 and iFGF23 levels and the effect of intravenous iron on iFGF23 and cFGF23 levels.
Randomization occurred centrally via a fax-based system. […] The complete dose was infused over 15 minutes on day 0. […] An initial test dose of 25 mg was administered slowly over 5 minutes.
Laboratory testing of blood and three-hour urine collections was performed at the screening visit and on study days 0 (when iron was infused), 1 (24 hours after iron infusion), 7, 14, and 35 (see e.g., FIG. 2A). Any subject who experienced a reduction in serum phosphate below the normal range after day 0 underwent additional phosphate measurements at 14 day intervals following day 35 until the level returned to the normal reference range. Safety evaluations of all subjects included ascertainment of adverse events, physical examinations at all study visits, and laboratory assessments. Any subject who withdrew from the study received a follow-up phone call to ascertain adverse events 30 days after they received study drug.
The pre-specified primary endpoints were changes in blood and urine markers of phosphate and bone metabolism among the evaluable population, defined as those subjects with baseline and at least one post-randomization set of FGF23 and blood and urinary phosphate levels. Secondary endpoints included the proportion of subjects achieving a hemoglobin increase […] anytime between baseline and day 35, and the change from baseline to highest hemoglobin, ferritin, and TSAT anytime during the 35-day study period. Additional safety endpoints included incidence, severity, and seriousness of adverse events, and incidence of treatment-emergent abnormal clinical laboratory values in the safety population, defined as all subjects who received the study drug regardless of subsequent laboratory testing.
The number and proportion of subjects who experienced an adverse event in the safety population was summarized and rates between the iron treatment groups using Fisher's exact test were compared for the categorical safety endpoints. Analyses were conducted using SAS version 9 (Cary, N.C.). All statistical tests were 2-tailed and p values<0.05 were considered statistically significant.

serum phosphate = experiment: VIT-30: serum phosphate; type: in vivo, human
Source text: FIG. 1 is a line and scatter plot showing mean changes in phosphate (left vertical axis) or changes in FGF-23 (right vertical axis) with respect to baseline value at each study day (0, 7, 14, 28, or 56) as indicated on the Horizontal (X) axis for trial VIT30. […] Further details regarding methodology are provided in Example 2.
as §1
Clinical laboratory variables were presented in 2 ways. First, change from baseline to Day 7, Day 14, Day 28, and Day 56 were summarized. Baseline was defined as the last value obtained prior to the first injection of study drug. Second, the number and proportion of subjects with treatment-emergent PCS laboratory values were tabulated. Treatment-emergent PCS values were those in which the baseline value was normal and post-baseline value was abnormal (i.e., met Grade 3 or Grade 4 toxicity criteria from the National Cancer Institute Common Toxicity Criteria for Adverse Events, Version 3.0 [NCI CTCAE]).
For serum phosphate and platelet count, change from baseline to the smallest value after baseline and final value were also summarized. For subjects whose baseline value was above the lower reference range and who had at least 1 value below the lower reference range after baseline, the following were summarized: the number of days from baseline to the first value below the lower reference range and the number of days from the first value below the lower reference range until the first succeeding value within the reference range.

For “polynuclear iron (III)-hydroxide 4(R)-(poly-(1→4)-O-α-glucopyranosyl)-oxy-2(R),3(S),5(R),6-tetrahydroxy-hexanoate [FCM]”, the tolerability ([1]; 2 injections of 750 mg) was “well tolerated”, the “subjects who discontinued the study or study drug subsequent to a protocol-defined hypertensive event” value ([1]; 10 subjects) was 10.5% and the “hazard ratio (FCM versus Venofer) excluding protocol-defined hypertensive and hypotensive events” value ([1]; Cox proportional hazards) was 1.017. For the same substance, the “hazard ratio (FCM versus Venofer) for death due to any cause, nonfatal myocardial infarction, or nonfatal stroke” value ([1]; Cox proportional hazards) was 0.685, the protocol-defined hypertensive events ([1]; component of primary composite safety endpoint) was 7.45% and the “drug related treatment emergent adverse event: dizziness” value ([1]; in vivo) was 2.4%. For the same substance, the “drug related treatment emergent adverse event: flushing” value ([1]; in vivo) was 3.0%, the “drug related treatment emergent adverse event: hypertension” value ([1]; in vivo) was 4.6% and the “drug related treatment emergent adverse event: nausea” value ([1]; in vivo) was 8.6%. For the same substance, the “drug related treatment emergent adverse event: vomiting” value ([1]; in vivo) was 2.0%, the “serious adverse event: cardiac failure congestive” value ([1]; in vivo) was 2.4% and the “subjects prematurely discontinued from study drug due to adverse events” value ([1]; in vivo) was 2.6%. The “subjects with Grade 3 treatment emergent adverse events” value ([1]; in vivo) was 12.9%, the “subjects with Grade 4 treatment emergent adverse events” value ([1]; in vivo) was 4.7% and the “subjects with Grade 5 (fatal) treatment emergent adverse events” value ([1]; in vivo) was 1.2%. For the same substance, the “subjects with adjudicated events of death due to any cause, nonfatal myocardial infarction, or nonfatal stroke” value ([1]; in vivo) was 1.88%, the “subjects with adverse event that resulted in discontinuation from the study” value ([1]; in vivo) was 2.4% and the “subjects with at least 1 serious adverse event” value ([1]; in vivo) was 15.8%. For the same substance, the “subjects with at least 1 treatment emergent adverse event” value ([1]; in vivo) was 65.4%, the “treatment emergent adverse event: hypertension” value ([1]; in vivo) was 10.7% and the “treatment emergent adverse event: nausea” value ([1]; in vivo) was 13.5%. For the same substance, the “subjects with at least 1 drug related treatment emergent adverse event” value ([1]; possibly or probably related) was 23.4%, the “clastogenicity, mutagenicity, chromosomal damage or bone marrow cell toxicity” value [2] was “no evidence” and the “subjects who experienced one or more adverse events” value [3] was 68%. The “subjects with adverse events considered to be related to study drug” value [3] was 32%, the “adverse event: reduced serum phosphate noted by subjects' physicians” value ([3]; p=0.008 between groups) was 32% and the “Discontinuation from study due to adverse event, n (%)” value ([3]; safety population) was 2 (8%) n (%). The “Patients experiencing one or more adverse events related to study drug, n (%)” value ([3]; safety population) was 8 (32%) n (%), the “Patients experiencing one or more adverse events, n (%)” value ([3]; safety population) was 17 (68%) n (%) and the “Patients experiencing one or more serious adverse events, n (%)” value ([3]; safety population) was 0 (0%) n (%). The “mean changes in phosphate with respect to baseline (FIG. 1)” value (serum phosphate; Days 7, 14, 28, 56, trial VIT30) was “decreased with respect to baseline values”, the “incidence of serum phosphate<2.0 mg/dL” value (serum phosphate; chronic kidney disease trial of 2500 patients, 120 days of follow-up (see Example 2)) was 18.5% and the “proportion of subjects with PCS low phosphorus” value (serum phosphate; treatment-emergent potentially clinically significant value) was 18.5%.
